# Measured values: article PMC6266305 (Nutrients, 2018)
# “And” between values parts separate entries of the source, which are not always exact repeats. Equal values may be shown once. “Also recorded” adds a separate entry of the source.
# Key:
# [1] = In vitro digestion model: bioaccessibility of alperujo phenolic compounds added to a test meal (percentage found in the aqueous phase of the digesta); format: in vitro ADME; conditions: average of alperujo and alperujo-CD, mean ± SD
# Description: The in vitro digestion was carried out as previously described. […] The mixture was dispersed with Ultra-Turrax® (Ika) and artificial saliva (2.5 mL, pH 7) was added to the mixture. The sample was incubated for 10 min at 37 °C in a shaking incubator. The pH of the gastric medium was adjusted to 4.00 ± 0.02 with 1 M HCl. Then, porcine pepsin (2 mL, 40 mg/mL in 0.1 M HCl) was added and the homogenate was incubated at 37 °C in a shaking incubator for 30 min simulating the gastric step. The pH of the mixture was raised to 6.00 ± 0.02 with 0.9 M NaHCO3 and 13 mL of a mixture of porcine bile extract (39.08 mg/mL) and pancreatin (2.08 mg/mL) in 0.1 M trisodium citrate (pH 6) were added. Samples were incubated in a shaking incubator at 37 °C for 30 min to complete the digestion process. The final mixture representing the digesta was centrifuged (2500 g for 1 h at 10 °C) to separate the aqueous fraction. […] All analyses were run in quadruplicate. Aliquots from salivary, gastric, and duodenal steps were frozen at −80 °C until use. […] After centrifugation (3560 g for 10 min at 4 °C), the lower phase was collected. The solid bottom was re-extracted with 0.3 mL of ethanol and vortexed for 10 min. The second ethanol phase recovered was pooled to the previously collected phase, and then dried using a Speed-Vac®. The dried extracts were dissolved in 200 µL of water. Apical media were directly injected. […] All samples were stored at −80 °C before analysis. All samples were analyzed by UHPLC-DAD-MS using an Acquity UPLC® system that was linked to both a diode-array detector and a Bruker Daltonics HCT Ultra Ion Traps mass spectrometer equipped with an Electron Spray Ionization (ESI) source operating in negative ion mode. The separation was performed on an Acquity C18 BEH column (50 × 2.1 mm i.d., 1.7 µm) kept at 35 °C. The solvents were (A) water/formic acid (99.5/0.5) and (B) acetonitrile. […] Along the three steps of the gradient, the flow rate was 0.30, 0.35, and 0.40 mL/min. […] Chromatograms were acquired at 280 nm. The spectroscopic detection was performed in the range 200–800 nm with a resolution of 1.2 nm.
# Caco-2 TC7 cells = test: Uptake and apical-to-basolateral transport by Caco-2 TC7 cell monolayers of diluted aqueous fractions from in vitro digestions; format: in vitro ADME, human; conditions: for Recovery in the cytosolic compartment of the cells or in the basolateral media (crossing of Caco-2 monolayers, native form): 6-h incubation; for Decrease of amount in the apical media: 6-h incubation on cell monolayers; for FA at the basolateral side as percentage (CA equivalent) of the initial CA amount in the apical side: 6 h, FA is the CA metabolite
# Description: Caco-2 TC7 cells were grown in DMEM supplemented with 16% (v/v) fetal bovine serum, 1% (v/v) non-essential amino-acids, and 1% (v/v) antibiotics (complete medium), as previously described. Cells were then seeded at a density of 15 000 cells/well, grown on transwell membrane (six-well plate, […] polycarbonate membrane; Becton Dickinson) and incubated in humidified atmosphere of 5% CO2 and 95% air at 37 °C during 21 days to obtain confluent and differentiated cell monolayers.
# The cytotoxicity on Caco-2 cells of the aqueous fractions from in vitro digestions was first assessed to determine the suitable dilution required before adding the aqueous fractions to the apical side of cell monolayers. […] To avoid any interference with DMEM or serum components, the aqueous fractions were diluted in HBSS. Caco-2 cells also received HBSS in both chambers 12 h before the experiments. At the beginning of each experiment, cells were rinsed twice with 1 mL of PBS. Then, 1 mL of diluted aqueous fraction was added to the apical side and 2 mL of HBSS were added at the basolateral side. After an incubation period (2, 4, or 6 h) at 37 °C, both apical and basolateral media were harvested. Cells were then rinsed twice with 1mL of PBS and scrapped in 0.5 mL of iced-cold PBS. All analyses were run in quadruplicate and samples were stored at −80 °C until further analysis.
# Gallic acid was chosen as internal standard as it was not present in the extract. Phenolic compounds were extracted from salivary, gastric and duodenal samples as follows: 0.3 mL of ethanol and 0.2 mL of n-hexane were added to 0.2 mL of sample and the mixture was stirred for 10 min using a vortex blender at maximal speed. After centrifugation (3560 g for 10 min at 4 °C), the lower phase was collected. The solid bottom was re-extracted with 0.3 mL of ethanol and vortexed for 10 min. The second ethanol phase recovered was pooled to the previously collected phase, and then dried using a Speed-Vac®. The dried extracts were dissolved in 200 µL of water. Apical media were directly injected. To concentrate them, basolateral media (1900 µL) were dried using a Speed-Vac®, and the dried residues were dissolved into 80 µL of water. All samples were stored at −80 °C before analysis.
# Following the procedure by Gallardo et al. (2016), 50 µL of internal standard were added to harvested cells (in 500 µL PBS). Samples were then sonicated for 10 min at room temperature and centrifuged (10,000 g for 10 min at 4 °C). Supernatants were collected and evaporated to dryness. The dried residues were dissolved in 50 µL of water and stored at −80 °C before analysis.
# All samples were analyzed by UHPLC-DAD-MS using an Acquity UPLC® system that was linked to both a diode-array detector and a Bruker Daltonics HCT Ultra Ion Traps mass spectrometer equipped with an Electron Spray Ionization (ESI) source operating in negative ion mode. The separation was performed on an Acquity C18 BEH column (50 × 2.1 mm i.d., 1.7 µm) kept at 35 °C. The solvents were (A) water/formic acid (99.5/0.5) and (B) acetonitrile. The proportions of solvent B used were: 0–10 min: 1–20%, 10–12 min: 20–30%, 12–14 min: 30–100%. Along the three steps of the gradient, the flow rate was 0.30, 0.35, and 0.40 mL/min. The injection volume was 1 μL for digestion and apical medium samples, and 10 µL for cells and basolateral samples. Chromatograms were acquired at 280 nm. The spectroscopic detection was performed in the range 200–800 nm with a resolution of 1.2 nm. The concentrations of phenolic compounds Tyr, CA, and p-Cm were estimated from calibration curves (peak area vs. concentration) with R² values greater than 0.99 [26].
# Results were expressed as means ± standard deviations. Differences between means were assessed using ANOVA followed by the post-hoc Tukey test for parametric data. P values under 0.05 were considered to be significant. […]
# Caco-2 cells = test: Overall in vitro bioavailability: basolateral amount in Caco-2 cells relative to the initial amount in the test meal before in vitro digestion; format: in vitro ADME, human; conditions: mean ± SD (n = 4)
# Description: The in vitro digestion was carried out as previously described. […] The mixture was dispersed with Ultra-Turrax® (Ika) and artificial saliva (2.5 mL, pH 7) was added to the mixture. The sample was incubated for 10 min at 37 °C in a shaking incubator. […] Then, porcine pepsin (2 mL, 40 mg/mL in 0.1 M HCl) was added and the homogenate was incubated at 37 °C in a shaking incubator for 30 min simulating the gastric step. […] Samples were incubated in a shaking incubator at 37 °C for 30 min to complete the digestion process. The final mixture representing the digesta was centrifuged (2500 g for 1 h at 10 °C) to separate the aqueous fraction. […] The cytotoxicity on Caco-2 cells of the aqueous fractions from in vitro digestions was first assessed to determine the suitable dilution required before adding the aqueous fractions to the apical side of cell monolayers. […] To avoid any interference with DMEM or serum components, the aqueous fractions were diluted in HBSS. Caco-2 cells also received HBSS in both chambers 12 h before the experiments. At the beginning of each experiment, cells were rinsed twice with 1 mL of PBS. […] Cells were then rinsed twice with 1mL of PBS and scrapped in 0.5 mL of iced-cold PBS. All analyses were run in quadruplicate and samples were stored at −80 °C until further analysis. Results were expressed as means ± standard deviations. Differences between means were assessed using ANOVA followed by the post-hoc Tukey test for parametric data. […] Two parameters were assessed to express the bioavailability: a) the ratio between the mass of phenolic compounds recovered at the basolateral side and the initial mass added to the apical side, b) the ratio between the mass of phenolic compounds recovered at the basolateral side and the initial mass added to the meal.
# [2] = set-up: method as in PMID 21494673; conditions: cited from earlier work
molecule,measurement,setting,value
"O=C(O)/C=C/c1ccc(O)c(O)c1 [CA, caffeic acid]",recovery,"[1]; pig, pH 6, in vitro digestion with test meal, read-out: Bioaccessibility (recovery in the final aqueous phase at the duodenal step)",~64.9%
same,"Recovery in the cytosolic compartment of the cells or in the basolateral media (crossing of Caco-2 monolayers, native form)",Caco-2 TC7 cells,neither HT-Glc nor CA was recovered; also recorded: not recovered; also recorded: not found bioavailable in its native form
same,Decrease of amount in the apical media,Caco-2 TC7 cells; from alperujo,~18%
same,"Recovery in the cytosolic compartment of the cells or in the basolateral media (crossing of Caco-2 monolayers, native form)",Caco-2 TC7 cells; listed as caffeic,did not cross Caco-2 cell monolayers
"COc1cc(/C=C/C(=O)O)ccc1O [FA, Ferulic acid]",FA at the basolateral side as percentage (CA equivalent) of the initial CA amount in the apical side,Caco-2 TC7 cells; from alperujo-CD,23.4 ± 2.2% and 23.4 ± 2.2 ^b %
same,FA at the basolateral side as percentage (CA equivalent) of the initial CA amount in the apical side,Caco-2 TC7 cells; from alperujo,18.8 ± 1.0% and 18.8 ± 1.0 ^a %
same,"Absorption efficiency of FA through cell monolayers, percentage of the initial CA amount",Caco-2 TC7 cells; alperujo and alperujo-CD,~ 20%
same,Bioavailability of FA (CA metabolite) in Caco-2 cells as percentage of initial amount in the test meal before in vitro digestion,Caco-2 cells; from alperujo-CD,10.0 ± 1.0 ^a %
same,Bioavailability of FA (CA metabolite) in Caco-2 cells as percentage of initial amount in the test meal before in vitro digestion,Caco-2 cells; from alperujo,8.9 ± 0.5 ^a %
O=C1C[C@@H](c2ccc(O)cc2)Oc2cc(O)cc(O)c21 [naringenin],Improvement of absorption through the gut epithelium by hydroxypropyl-β-CD,[2],11 fold
hydroxytyrosol-O-glucoside [HT-Glc],Bioaccessibility (recovery in the final aqueous phase at the duodenal step),[1]; in vitro digestion with test meal,73.2 ± 4.5%
same,"Recovery in the cytosolic compartment of the cells or in the basolateral media (crossing of Caco-2 monolayers, native form)",Caco-2 TC7 cells,neither HT-Glc nor CA was recovered; also recorded: no HT-Glc was recovered
same,Decrease of amount in the apical media,Caco-2 TC7 cells; from alperujo,about 10%
same,"Recovery in the cytosolic compartment of the cells or in the basolateral media (crossing of Caco-2 monolayers, native form)",Caco-2 TC7 cells; listed as Hydroxytyrosol-O-glucoside,did not cross Caco-2 cell monolayers
